# From paper PMC8236452, “Pharmacokinetics and safety of rucaparib in patients with advanced solid tumors and hepatic impairment” (Cancer Chemotherapy and Pharmacology, 2021)
# Tests used:
# [1] = cited from earlier work
# [2] = parameters: method as in PMID 28222073; conditions: immediate-release tablet; cited from earlier work
# [3] = parameters: method as in PMID 32129697; conditions: in vitro; cited from earlier work
# [4] = Plasma pharmacokinetics after a single oral dose of rucaparib 600 mg in patients with advanced solid tumors, by hepatic function group; conditions: for AUC(0-inf) / AUC(0-t) / Cmax: human, plasma, 600 mg; for AUC(0-t): AUC0–last
# Procedure: In Part 1, patients received a single oral dose of rucaparib 600 mg on day 1; PK samples were collected and safety monitored through day 7.
# Sample collection, processing, and shipping were conducted according to standardized protocols shared across study sites. Plasma samples were collected for PK analysis at the predose assessment and at 1, 2, 3, 4, 8, 12, 24, 48, 72, 96, 120, and 144 h postdose. A predose urine sample was collected less than 12 h prior to study drug administration. Total urine was collected 0–12 h and 12–24 h postdose. Total (bound and unbound) concentrations of rucaparib and its metabolite M324 in plasma and urine samples were determined by Q Squared Solutions BioSciences (Ithaca, NY, USA) using validated liquid chromatography mass spectrometry/mass spectrometry methods. Stable deuterium-labeled analytes were used as internal standards. The assay calibration ranges for plasma samples were 5–10,000 ng/mL for rucaparib and 1–1000 ng/mL for M324 with lower limits of quantification (LLOQ) of 5.00 and 1.00 ng/mL, respectively. For urine samples, the calibration range was 500–50,000 ng/mL for both rucaparib and M324, with a LLOQ of 500 ng/mL for both analytes. The precision was within 9.3% CV, and the accuracy was within ± 6.2%.
# PK parameters were estimated from the concentration–time profiles. Actual elapsed time after dosing was used to estimate plasma PK parameters based on noncompartmental methods using Phoenix® WinNonlin® version 8.1.0 (Certara USA, Inc., Princeton, NJ, USA). […] Exploratory PK parameters for M324 calculated based on plasma and urine concentration-time data were Cmax, AUC0–last, AUC0–inf, t1/2, tmax, Ae0–24, and CLR, as data allowed.
# PK parameters were calculated by noncompartmental analysis, analyzed using descriptive statistics, and presented by hepatic functional status. Analysis of variance (ANOVA) was used to compare PK parameters (e.g., Cmax, AUC0–last, and AUC0–inf) between the normal hepatic function group and the moderate hepatic impairment group per NCI-ODWG criteria. PK values were log-transformed before analysis. Baseline covariates (e.g., creatinine clearance [CLcr], sex, age, BMI, and ECOG PS) were tested for any significant effect (P value < 0.05). Geometric least-squares means were used to calculate the ratios of the PK parameters in the hepatic impairment group to those in the control group, along with 90% confidence intervals (CIs). The Wilcoxon rank-sum test was used to compare tmax values between the two groups, and estimates of the median differences were determined, along with 90% CIs. In addition, the relationships between log-transformed PK parameters (AUC0–last, AUC0–inf, Cmax) for rucaparib and M324 and hepatic function parameters (bilirubin and aspartate aminotransferase [AST]) relevant to the classification of hepatic impairment according to NCI-ODWG were explored by a linear regression approach.
# [5] = ANOVA, NCI-ODWG moderate hepatic impairment vs normal hepatic function
# [6] = Child–Pugh mild hepatic impairment, single oral rucaparib 600 mg
# [7] = Child–Pugh moderate hepatic impairment, single oral rucaparib 600 mg
# [8] = Child–Pugh severe hepatic impairment, single oral rucaparib 600 mg
# [9] = NCI-ODWG moderate hepatic impairment, single oral rucaparib 600 mg
# [10] = NCI-ODWG normal hepatic function, single oral rucaparib 600 mg
# [11] = oral, Geometric LS means, ANOVA, NCI-ODWG moderate hepatic impairment (n = 8)
# [12] = oral, Geometric LS means, ANOVA, NCI-ODWG normal hepatic function (n = 8)
# [13] = po, GM, Child–Pugh mild hepatic impairment, single oral rucaparib 600 mg
# [14] = po, GM, Child–Pugh moderate hepatic impairment, single oral rucaparib 600 mg
# [15] = po, GM, Child–Pugh severe hepatic impairment, single oral rucaparib 600 mg
# [16] = po, GM, NCI-ODWG moderate hepatic impairment, single oral rucaparib 600 mg
# [17] = po, Mean (SD), Child–Pugh mild hepatic impairment, single oral rucaparib 600 mg
# [18] = po, Mean (SD), Child–Pugh moderate hepatic impairment, single oral rucaparib 600 mg
# [19] = po, Mean (SD), Child–Pugh severe hepatic impairment, single oral rucaparib 600 mg
# [20] = po, Mean (SD), NCI-ODWG moderate hepatic impairment, single oral rucaparib 600 mg
# [21] = po, Mean (SD), NCI-ODWG normal hepatic function, single oral rucaparib 600 mg
# [22] = po, Median (min–max), Child–Pugh mild hepatic impairment, single oral rucaparib 600 mg
# [23] = po, Median (min–max), Child–Pugh moderate hepatic impairment, single oral rucaparib 600 mg
# [24] = po, Median (min–max), Child–Pugh severe hepatic impairment, single oral rucaparib 600 mg
# [25] = po, Median (min–max), NCI-ODWG moderate hepatic impairment, single oral rucaparib 600 mg
# [26] = po, Median (min–max), NCI-ODWG normal hepatic function, single oral rucaparib 600 mg
compound,measurement,setting,value
CNCc1ccc(-c2[nH]c3cc(F)cc4c3c2CCNC4=O)cc1 [rucaparib],plasma protein binding,[1],70%
same,"absolute bioavailability, range",[2],30–45%
same,mean absolute bioavailability,[2],36%
same,metabolic turnover rate,[3],low
same,"AUC0-inf, Geometric mean ratio Moderate/normal (90% CI)",[4]; [5],1.446
same,"AUC0–last, Geometric mean ratio Moderate/normal (90% CI)",[4]; [5],1.335 (0.617–2.891)
same,"Cmax, Geometric mean ratio Moderate/normal (90% CI)",[4]; [5],0.907 (0.605–1.362)
same,"AUC0-inf, Geometric mean ratio Moderate/normal (90% CI)","[4]; ANOVA, NCI-ODWG moderate hepatic impairment vs normal hepatic function, listed as Rucaparib",1.446 (0.668–3.131)
same,"CL/F, GM",[4]; [6],64.0 L/h
same,"CL/F, Mean (SD)",[4]; [6],82.2 (59.5) L/h
same,"CL/F, Median (min–max)",[4]; [6],68.3 (26.4–180) L/h
same,"CL/F, GM",[4]; [7],23.7 L/h
same,"CL/F, Mean (SD)",[4]; [7],25.1 (8.62) L/h
same,"CL/F, Median (min–max)",[4]; [7],28.4 (14.6–34.6) L/h
same,"CL/F, GM",[4]; [8],22.2 L/h
same,"CL/F, Mean (SD)",[4]; [8],39.6 (46.4) L/h
same,"CL/F, Median (min–max)",[4]; [8],39.6 (6.79–72.4) L/h
same,"CL/F, GM",[4]; [9],30.2 L/h
same,"CL/F, Mean (SD)",[4]; [9],48.1 (56.8) L/h
same,"CL/F, Median (min–max)",[4]; [9],29.1 (6.79–180) L/h
same,"CL/F, GM",[4]; [10],43.7 L/h
same,"CL/F, Mean (SD)",[4]; [10],55.7 (42.7) L/h
same,"CL/F, Median (min–max)",[4]; [10],33.1 (15.9–133) L/h
same,AUC(0-inf),"[4]; oral, AUC0-inf, Geometric LS means, ANOVA, NCI-ODWG moderate hepatic impairment (n = 8)",19900 ng·h/mL
same,AUC(0-inf),"[4]; oral, AUC0-inf, Geometric LS means, ANOVA, NCI-ODWG normal hepatic function (n = 8)",13700 ng·h/mL
same,AUC(0-t),[4]; [11],17500 ng·h/mL
same,AUC(0-t),[4]; [12],13100 ng·h/mL
same,Cmax,[4]; [11],583 ng/mL
same,Cmax,[4]; [12],642 ng/mL
same,AUC(0-inf),"[4]; po, AUC0–inf, GM, Child–Pugh mild hepatic impairment, single oral rucaparib 600 mg",9370 ng·h/mL
same,AUC(0-inf),"[4]; po, AUC0–inf, GM, Child–Pugh moderate hepatic impairment, single oral rucaparib 600 mg",25300 ng·h/mL
same,AUC(0-inf),"[4]; po, AUC0–inf, GM, Child–Pugh severe hepatic impairment, single oral rucaparib 600 mg",27100 ng·h/mL
same,AUC(0-inf),"[4]; po, AUC0–inf, GM, NCI-ODWG moderate hepatic impairment, single oral rucaparib 600 mg",19900 ng·h/mL
same,AUC(0-inf),"[4]; po, AUC0–inf, GM, NCI-ODWG normal hepatic function, single oral rucaparib 600 mg",13700 ng·h/mL
same,AUC(0-inf),"[4]; po, AUC0–inf, Mean (SD), Child–Pugh mild hepatic impairment, single oral rucaparib 600 mg",11900 ng·h/mL
same,AUC(0-inf),"[4]; po, AUC0–inf, Mean (SD), Child–Pugh moderate hepatic impairment, single oral rucaparib 600 mg",26800 ng·h/mL
same,AUC(0-inf),"[4]; po, AUC0–inf, Mean (SD), Child–Pugh severe hepatic impairment, single oral rucaparib 600 mg",48300 ng·h/mL
same,AUC(0-inf),"[4]; po, AUC0–inf, Mean (SD), NCI-ODWG moderate hepatic impairment, single oral rucaparib 600 mg",29000 ng·h/mL
same,AUC(0-inf),"[4]; po, AUC0–inf, Mean (SD), NCI-ODWG normal hepatic function, single oral rucaparib 600 mg",17000 ng·h/mL
same,AUC(0-inf),"[4]; po, AUC0–inf, Median (min–max), Child–Pugh mild hepatic impairment, single oral rucaparib 600 mg",8780 ng·h/mL
same,AUC(0-inf),"[4]; po, AUC0–inf, Median (min–max), Child–Pugh moderate hepatic impairment, single oral rucaparib 600 mg",21100 ng·h/mL
same,AUC(0-inf),"[4]; po, AUC0–inf, Median (min–max), Child–Pugh severe hepatic impairment, single oral rucaparib 600 mg",48300 ng·h/mL
same,AUC(0-inf),"[4]; po, AUC0–inf, Median (min–max), NCI-ODWG moderate hepatic impairment, single oral rucaparib 600 mg",20600 ng·h/mL
same,AUC(0-inf),"[4]; po, AUC0–inf, Median (min–max), NCI-ODWG normal hepatic function, single oral rucaparib 600 mg",18100 ng·h/mL
same,AUC(0-t),[4]; [13],8910 ng·h/mL
same,AUC(0-t),[4]; [14],22500 ng·h/mL
same,AUC(0-t),[4]; [15],23900 ng·h/mL
same,AUC(0-t),[4]; [16],17500 ng·h/mL
same,AUC(0-t),"[4]; po, GM, NCI-ODWG normal hepatic function, single oral rucaparib 600 mg",13100 ng·h/mL
same,AUC(0-t),[4]; [17],11600 ng·h/mL
same,AUC(0-t),[4]; [18],24100 ng·h/mL
same,AUC(0-t),[4]; [19],42200 ng·h/mL
same,AUC(0-t),[4]; [20],25500 ng·h/mL
same,AUC(0-t),[4]; [21],16200 ng·h/mL
same,AUC(0-t),[4]; [22],8580 ng·h/mL
same,AUC(0-t),[4]; [23],18400 ng·h/mL
same,AUC(0-t),[4]; [24],42200 ng·h/mL
same,AUC(0-t),[4]; [25],17800 ng·h/mL
same,AUC(0-t),[4]; [26],17700 ng·h/mL
same,Cmax,[4]; [13],550 ng/mL
same,Cmax,[4]; [14],657 ng/mL
same,Cmax,[4]; [15],692 ng/mL
same,Cmax,[4]; [16],583 ng/mL
same,Cmax,[4]; [17],604 ng/mL
same,Cmax,[4]; [18],694 ng/mL
same,Cmax,[4]; [19],827 ng/mL
same,Cmax,[4]; [20],658 ng/mL
same,Cmax,[4]; [21],685 ng/mL
same,Cmax,[4]; [22],590 ng/mL
same,Cmax,[4]; [23],762 ng/mL
same,Cmax,[4]; [24],827 ng/mL
same,Cmax,[4]; [25],471 ng/mL
same,Cmax,[4]; [26],665 ng/mL
